The source of these data is article PMC6476888, “Design and synthesis of anticancer 1-hydroxynaphthalene-2-carboxanilides with a p53 independent mechanism of action” (Scientific Reports, 2019).

The test system of one experiment is HCT116^+/+. Put plainly: Antiproliferative assay (MTS, 72 h) on HCT116 wild type. The experiment is classed as cell-based, human. As to conditions: Homo sapiens, HCT-116; MTS, 72 h incubation; read-out: Activity IC50 HCT116^+/+.
The next experiment concerns HCT116^−/−. Put plainly: Antiproliferative assay (MTS, 72 h) on HCT116 with p53 deletion. The experiment is classed as cell-based, human. Particulars: Homo sapiens, HCT-116; MTS, 72 h incubation.
The next experiment concerns NHDF. Put plainly: Cytotoxicity (MTS, 72 h) against normal human fibroblasts. Format: cell-based. Particulars: Homo sapiens, NHDF; MTS, 72 h incubation.
The test system of a further experiment is CT-DNA. Put plainly: Spectrophotometric DNA intercalation assay. Format: binding, calf. An excerpt: The fused aromatic rings of the naphthalene moiety and halogen substituents in aniline may guarantee good intercalating properties[71],[72]. On the other hand, the intercalation of DNA may explain the high activity against both the wild-type and p53 mutants as was reported for a series of styrylquinolines. Binding to DNA causes the bases to mismatch or cleave, which results in the arrest of the cell cycle and apoptosis. The effectiveness of the p53 system is one of the most important factors in the response to therapy. We tested the intercalating properties of the selected compounds in a spectrophotometric assay on calf-thymus DNA. The absorption spectra of the tested compounds in the absence and presence of CT-DNA are presented in Figure S1 Supplementary Information and the spectral properties with doxorubicine and CP-31398 are summarized in Table 2.
For the DNA binding studies, Calf-thymus DNA (CT-DNA) was purchased from Sigma- Aldrich. The lyophilized CT-DNA was dissolved in 10 mM Tris-HCl, pH 7.9, mixed gently and left overnight at 4 °C. The purity of the CT-DNA solution was determined by measuring the ratio of UV absorbance at 260 and 280 nm. […] Then, the concentration of CT-DNA was determined from the absorbance at 260 nm using an extinction coefficient of 6600 M^−1cm^−1. The tested compounds including DOX and CP-31398 were dissolved to a concentration of 8.35 mM in DMSO, which was then used as the stock solution for preparing the various concentrations (25, 12.5, 6 and 3 µM) in 1 mL in 10 mM of Tris-HCl (pH 7.9). Afterwards, 18 µM CT-DNA was added to the prepared solutions, which were incubated for 1.5 h at 37 °C with occasional vortexing. The absorption spectra were measured using a Hitachi U-2900 spectrophotometer in the range of 200–500 nm. All absorption spectra were imported into OriginPro 8.0 and compared.

The test system of experiment [1] is p53/p21 system in the HCT116 cells. Put plainly: Western blot of p53/p21 activation. Format: cell-based, human. Particulars: wild-type HCT116, 12 and 24 h. Here is the method:
Further exploration of the cell death model was performed by a western blot analysis of protein activation in response to incubation with the tested compound (Figs 6, 7). […] The proapoptotic activation of the p53/p21 system was noticeable after the first 12 hours and then became stronger after 24 h. This effect was not observed in the case of the p53 null cells, which were unable to synthesize this protein.
The HCT116 cells were seeded in 3-cm Petri dishes (Nunc) at a density of 0.5·10^6 cells/well and incubated overnight. […] The cells were harvested by trypsinization and washed with cold PBS. Next, the cells were centrifuged and suspended in an RIPA buffer (Thermo-Fisher Scientific) containing Halt Protease Inhibitor Cocktail (Thermo-Fisher Scientific), Halt Phosphatase Inhibitor Cocktail (Thermo-Fisher Scientific) along with 0.5 M EDTA and lysed for 20 min on ice. Then, the lysates were sonicated, centrifuged at 10,000 rpm for 10 min at 4 °C and the supernatants were collected for further analysis. The protein concentration was determined using a Micro BCA™ Protein Assay Kit (Thermo-Fisher Scientific, Waltham, MA, USA c) according to the manufacturer’s instructions. Equal amounts of the proteins (20 μg) were electrophoresed on SDS-Page gels and transferred onto nitrocellulose membranes. The membranes were blocked in 5% non-fat milk prepared in PBS containing 0.1% Tween-20 (TPBS) for 1 h. After blocking, the membranes were incubated with specific primary antibodies: p21^Waf1/Cip1, p53, cytochrome c, caspase-8, caspase-9, AIF, PARP, GAPDH and β-Actin overnight at 4 °C, and then washed and incubated with horseradish peroxidase (HRP)-conjugated secondary antibodies for 1 h at room temperature. All of the antibodies were purchased from CellSignaling (Danvers, MA, USA) and were diluted 1:1000 in 5% milk in TPBS. Finally, the membranes were washed and incubated with a SuperSignal™ West Pico Chemiluminescent Substrate (Thermo-Fisher Scientific). The chemiluminescence signals were captured using a ChemiDoc™ XRS+ System (Bio-Rad Laboratories, Hercules, CA, USA). The experiments were performed at least three times. Densitometric analysis was performed using ImageJ 1.41 software (Wayne Rasband, National Institutes of Health, USA).
Background: In western blotting, separated proteins are transferred to a membrane and probed.

Where [2] appears, read: bound to CT-DNA, for CP-31398 first value (312 nm band).

`COc1cccc2c1C(=O)c1c(O)c3c(c(O)c1C2=O)C[C@@](O)(C(=O)CO)C[C@@H]3O[C@H]1C[C@H](N)[C@H](O)[C@H](C)O1` [DOX, doxorubicin, reference compound]: in the experiment with HCT116^+/+, the IC50 came out at 340 ± 40 nM. Moreover, the IC50 in the experiment with HCT116^−/− came out at 380 ± 30 nM. Further, the IC50 with NHDF stood at 3380 ± 1290 nM. In addition, the Changes in absorbance result in the experiment on CT-DNA (bound to CT-DNA (18 µM), 1.5 h 37 °C, Tris-HCl pH 7.9) is reported as “hypochromism”. Also, in the experiment with CT-DNA (setting [2]), the “% hypochromism” value is given as 34.2% and the Δε came out at 3235.6 M⁻¹ cm⁻¹. For the same compound, the red shift with CT-DNA (wavelengths of maximum absorption, individual vs DNA-bound compound) is reported as 10 nm. In addition, in experiment [1], the p21 protein amount result is recorded as “dramatic increase” and the “p53 protein amount / activation” value was “dramatic increase”.
